Test results taken from PubChem BioAssay (NCI).
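GI50 = concentration required for 50% inhibition of growth. At the TGI there is no net growth.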

Tests used:
Test in all cases: NCI-60 cell line screen, 384-well format
[1] = test system: SK-MEL-28 melanoma
[2] = test system: TK-10 renal
[3] = test system: RPMI-8226 leukemia
[4] = test system: SK-MEL-5 melanoma
[5] = test system: A549 NSCLC
[6] = test system: HS 578T breast
[7] = test system: DU-145 prostate
[8] = test system: HCT-15 colon
[9] = test system: 786-0 renal
[10] = test system: SF-539 CNS
[11] = test system: MDA-MB-231 breast
[12] = test system: LOX IMVI melanoma
[13] = test system: KM12 colon
[14] = test system: OVCAR-5 ovarian
[15] = test system: BT-549 breast
[16] = test system: NCI-H23 lung
[17] = test system: SF-295 CNS
[18] = test system: HCT-116 colon
[19] = test system: NCI-H322M lung
[20] = test system: UACC-62 melanoma
[21] = test system: SK-OV-3 ovarian
[22] = test system: NCI-H226 lung
[23] = test system: U251 glioblastoma
[24] = test system: CCRF-CEM leukemia
[25] = test system: HT29 colon
[26] = test system: T-47D breast
[27] = test system: UO-31 renal
[28] = test system: A498 renal
[29] = test system: NCI-H522 lung

Question: For `O=C1[C@H](Cc2ccc(O)cc2)N2C(=O)CCN(C(=O)NCc3ccccc3)[C@H]2CN1Cc1cccc2ccccc12`, which GI50 [1] is on record?
Answer: 1.98 µM

Question: What about the TGI [1] of the same compound?
Answer: 11.4 µM

Question: And the GI50 [2]?
Answer: 6.57 µM

Question: And the TGI [2]?
Answer: 24.1 µM

Question: And the GI50 [3]?
Answer: 2.03 µM

Question: And the TGI [3]?
Answer: 12.3 µM

Question: What about the GI50 [4] of the same compound?
Answer: 1.33 µM

Question: What about the TGI [4] of the same compound?
Answer: 4.11 µM

Question: And the GI50 [5]?
Answer: 1.83 µM

Question: What about the TGI [5] of the same compound?
Answer: 13.8 µM

Question: And the GI50 [6]?
Answer: 0.182 µM

Question: What about the TGI [6] of the same compound?
Answer: 0.77 µM

Question: What about the GI50 [7] of the same compound?
Answer: 4.25 µM

Question: And the TGI [7]?
Answer: 17.1 µM

Question: What about the GI50 [8] of the same compound?
Answer: 18.9 µM

Question: And the TGI [8]?
Answer: 82.9 µM

Question: And the GI50 [9]?
Answer: 2.76 µM

Question: And the TGI [9]?
Answer: 16.9 µM

Question: What about the GI50 [10] of the same compound?
Answer: 0.564 µM

Question: What about the TGI [10] of the same compound?
Answer: 9.79 µM

Question: And the GI50 [11]?
Answer: 0.556 µM

Question: And the TGI [11]?
Answer: 12 µM

Question: And the GI50 [12]?
Answer: 1.15 µM

Question: What about the TGI [12] of the same compound?
Answer: 5.36 µM

Question: What about the GI50 [13] of the same compound?
Answer: 2.82 µM

Question: What about the TGI [13] of the same compound?
Answer: 13.6 µM

Question: And the GI50 [14]?
Answer: 1.44 µM

Question: What about the TGI [14] of the same compound?
Answer: 9.66 µM

Question: What about the GI50 [15] of the same compound?
Answer: 1.28 µM

Question: And the TGI [15]?
Answer: 11.6 µM

Question: And the GI50 [16]?
Answer: 4.97 µM

Question: What about the TGI [16] of the same compound?
Answer: 17.7 µM

Question: What about the GI50 [17] of the same compound?
Answer: 3.79 µM

Question: What about the TGI [17] of the same compound?
Answer: 13.7 µM

Question: What about the GI50 [18] of the same compound?
Answer: 0.738 µM

Question: And the TGI [18]?
Answer: 11.8 µM

Question: What about the GI50 [19] of the same compound?
Answer: 3.72 µM

Question: What about the TGI [19] of the same compound?
Answer: 19.1 µM

Question: What about the GI50 [20] of the same compound?
Answer: 1.35 µM

Question: What about the TGI [20] of the same compound?
Answer: 8.06 µM

Question: What about the GI50 [21] of the same compound?
Answer: 1.66 µM

Question: And the TGI [21]?
Answer: 10.3 µM

Question: And the GI50 [22]?
Answer: 2.95 µM

Question: What about the TGI [22] of the same compound?
Answer: 11.1 µM

Question: What about the GI50 [23] of the same compound?
Answer: 0.578 µM

Question: What about the TGI [23] of the same compound?
Answer: 11.2 µM

Question: What about the GI50 [24] of the same compound?
Answer: 1.33 µM

Question: What about the TGI [24] of the same compound?
Answer: 7.73 µM

Question: What about the GI50 [25] of the same compound?
Answer: 3.17 µM

Question: And the TGI [25]?
Answer: 15.8 µM

Question: What about the GI50 [26] of the same compound?
Answer: 0.441 µM

Question: What about the TGI [26] of the same compound?
Answer: 3.68 µM

Question: And the GI50 [27]?
Answer: 16.1 µM

Question: And the TGI [27]?
Answer: 33.3 µM

Question: And the GI50 [28]?
Answer: 2.9 µM

Question: What about the TGI [28] of the same compound?
Answer: 9.62 µM

Question: And the GI50 [29]?
Answer: 0.518 µM

Question: And the TGI [29]?
Answer: 12.6 µM
